{
  "source": "patent US12643847B2",
  "about": "“Treprostinil derivatives and compositions and uses thereof” (CORSAIR PHARMA, INC., priority 2015, dated 2026)",
  "key": {"[1]": {"settings": "treprostinil as the free acid, cited from earlier work"}, "[2]": {"system": "PAH patients", "settings": "inhaled form; cited from earlier work"}, "[3]": {"experiment": "Human liver microsomal stability assay (Test 1)", "type": "in vitro ADME", "settings": "half-life in human liver microsomes, 0.5 μM test compound, 37° C., up to 45 min, NADPH-generating system, pH 7.4; read-out: Test 1 T1/2", "description": "(Test 1) Human liver microsomal stability assay was conducted by incubating 0.5 μM test compound at 37° C. for up to 45 minutes in 50 mM potassium phosphate buffer (pH 7.4) containing 0.5 mg of microsomal protein and 50 μL of NADPH-generating system (7.8 mg of glucose 6-phosphate, 1.7 mg of NADPH and 6 U of glucose 6-phosphate dehydrogenase per mL in 2% w/v of sodium bicarbonate). At 0, 5, 15, 30 and 45 min, an aliquot was taken and quenched with internal standard-containing stop solution. No co-factor controls at 45 min were prepared. After incubation, the samples were analyzed by LC-MS/MS. Peak area ratios of analyte to internal standard were used to calculate the intrinsic clearance. The intrinsic clearance (CLint) was determined from the first-order elimination constant by non-linear regression."}, "[4]": {"experiment": "Human skin homogenate stability assay (Test 3)", "type": "in vitro ADME", "settings": "half-life in human skin homogenate, 0.5 μM test compound, 37° C., up to 45 min, NADPH-generating system, pH 7.4; read-out: Test 3 T1/2", "description": "At 0, 5, 15, 30 and 45 min, an aliquot was taken and quenched with internal standard-containing stop solution. No co-factor controls at 45 min were prepared. After incubation, the samples were analyzed by LC-MS/MS. Peak area ratios of analyte to internal standard were used to calculate the intrinsic clearance. The intrinsic clearance (CLin t) was determined from the first-order elimination constant by non-linear regression."}, "[5]": {"experiment": "Human plasma stability assay (Test 2)", "type": "in vitro ADME", "settings": "half-life in heparinated human plasma, 0.5 μM test compound, 37° C.; read-out: Test 2 T1/2", "description": "(Test 2) Human plasma stability assay was conducted by incubating 0.5 μM test compound at 37° C. for up to 120 min in heparinated human plasma. At 0, 5, 15, 30, 60, 120 and […], an aliquot was taken and quenched with internal standard-containing stop solution. After incubation, the samples were analyzed by LC-MS/MS. Peak area ratios of analyte to internal standard were used to calculate the half-life."}},
  "data": [
    {"smiles": "CCCCC[C@H](O)CC[C@@H]1[C@H]2Cc3cccc(OCC(=O)O)c3C[C@H]2C[C@H]1O", "note": "[Compound A, Treprostinil]", "values": [
      {"measurement": "absolute oral bioavailability", "setting": "[1]; oral", "value": "less than 10%"},
      {"measurement": "systemic half-life", "setting": "[1]; due to significant metabolism", "value": "very short"},
      {"measurement": "PAH patients who cannot take inhaled treprostinil due to irritation", "setting": "[2]", "value": "about 50%"}
    ]},
    {"smiles": "CCCCC[C@H](O)CC[C@@H]1[C@H]2Cc3cccc(OCC(=O)O)c3C[C@H]2C[C@H]1OC(=O)CC", "note": "[Compound Ia-1]", "values": [
      {"measurement": "half-life at 0.5 μM", "setting": "[3]", "value": "< 0.25", "unit": "h"},
      {"measurement": "half-life at 0.5 μM", "setting": "[4]", "value": "> 1", "unit": "h"},
      {"measurement": "half-life at 0.5 μM", "setting": "[5]", "value": "> 1", "unit": "h"}
    ]},
    {"smiles": "CCCCC[C@H](O)CC[C@@H]1[C@H]2Cc3cccc(OCC(=O)O)c3C[C@H]2C[C@H]1OC(=O)OC", "note": "[Compound Ia-10, [1-(3-hydroxyoctyl)-2-methoxycarbonyloxy-2,3,3a,4,9,9a-hexahydro-1H-cyclopenta[b]naphthalen-5-yloxy]acetic acid]", "values": [
      {"measurement": "half-life at 0.5 μM", "setting": "[3]", "value": "< 0.25", "unit": "h"},
      {"measurement": "half-life at 0.5 μM", "setting": "[4]", "value": "> 1", "unit": "h"},
      {"measurement": "half-life at 0.5 μM", "setting": "[5]", "value": "> 1", "unit": "h"}
    ]},
    {"smiles": "CCCCC[C@@H](CC[C@@H]1[C@H]2Cc3cccc(OCC(=O)O)c3C[C@H]2C[C@H]1O)OC(=O)COC", "note": "[Compound Ib-8, {2-hydroxy-1-[3-(2-methoxyacetoxy)octyl]-2,3,3a,4,9,9a-hexahydro-1H-cyclopenta[b]naphthalen-5-yloxy}acetic acid]", "values": [
      {"measurement": "half-life at 0.5 μM", "setting": "[3]", "value": "< 0.25", "unit": "h"},
      {"measurement": "half-life at 0.5 μM", "setting": "[4]", "value": "> 1", "unit": "h"},
      {"measurement": "half-life at 0.5 μM", "setting": "[5]", "value": "> 1", "unit": "h"}
    ]},
    {"smiles": "CCCCC[C@H](O)CC[C@@H]1[C@H]2Cc3cccc(OCC(=O)OCC(=O)O)c3C[C@H]2C[C@H]1O", "note": "[II-1]", "values": [
      {"measurement": "half-life at 0.5 μM", "setting": "[3]", "value": "0.517 to 1", "unit": "h"},
      {"measurement": "half-life at 0.5 μM", "setting": "[4]", "value": "> 1", "unit": "h"},
      {"measurement": "half-life at 0.5 μM", "setting": "[5]", "value": "> 1", "unit": "h"}
    ]},
    {"smiles": "CCCCC[C@H](O)CC[C@@H]1[C@H]2Cc3cccc(OCC(=O)O[C@H](C)C(=O)O)c3C[C@H]2C[C@H]1O", "note": "[II-2]", "values": [
      {"measurement": "half-life at 0.5 μM", "setting": "[3]", "value": "0.517 to 1", "unit": "h"},
      {"measurement": "half-life at 0.5 μM", "setting": "[4]", "value": "> 1", "unit": "h"},
      {"measurement": "half-life at 0.5 μM", "setting": "[5]", "value": "> 1", "unit": "h"}
    ]},
    {"smiles": "CCCCCC(O)CCC1C(O)CC2Cc3c(cccc3OCC(=O)OCCC(=O)O)CC21", "note": "(stereo not drawn) [II-4, 3-{2-[2-hydroxy-1-(3-hydroxyoctyl)-2,3,3a,4,9,9a-hexahydro-1H-cyclopenta[b]naphthalen-5-yloxy]acetoxy}propionic acid]", "values": [
      {"measurement": "half-life at 0.5 μM", "setting": "[3]", "value": "0.25 to 0.5", "unit": "h"},
      {"measurement": "half-life at 0.5 μM", "setting": "[4]", "value": "> 1", "unit": "h"},
      {"measurement": "half-life at 0.5 μM", "setting": "[5]", "value": "> 1", "unit": "h"}
    ]},
    {"smiles": "CCCCC[C@H](O)CC[C@@H]1[C@H]2Cc3cccc(OCC(=O)O)c3C[C@H]2C[C@H]1OC(=O)CCCC", "note": "[Ia-3]", "values": [
      {"measurement": "half-life at 0.5 μM", "setting": "[3]", "value": "< 0.25", "unit": "h"},
      {"measurement": "half-life at 0.5 μM", "setting": "[4]", "value": "> 1", "unit": "h"},
      {"measurement": "half-life at 0.5 μM", "setting": "[5]", "value": "> 1", "unit": "h"}
    ]},
    {"smiles": "CCCCC[C@H](O)CC[C@@H]1[C@H]2Cc3cccc(OCC(=O)O)c3C[C@H]2C[C@H]1OC(=O)COCC", "note": "[Ia-9]", "values": [
      {"measurement": "half-life at 0.5 μM", "setting": "[3]", "value": "< 0.25", "unit": "h"},
      {"measurement": "half-life at 0.5 μM", "setting": "[4]", "value": "> 1", "unit": "h"},
      {"measurement": "half-life at 0.5 μM", "setting": "[5]", "value": "> 1", "unit": "h"}
    ]}
  ]
}
